Counter-ions that a name gives are not always drawn. Values belong to the compound of their own block, whether it stands above or below them. Calls of active or inactive are those of the source. The rule behind the calls is not given here.
Assays:
[1] = system: Pseudomonas aeruginosa; experiment: Antibacterial activity against Pseudomonas aeruginosa ATCC10145 assessed as inhibition of bacterial growth incubated for 12 hrs by agar dilution method; assay type: functional, organism-based
[2] = system: Staphylococcus aureus; experiment: Antibacterial activity against methicillin-resistant Staphylococcus aureus subsp. aureus ATCC43300 assessed as inhibition of bacterial growth incubated for 12 hrs by agar dilution method; assay type: functional, organism-based
[3] = system: Candida albicans; experiment: Antifungal activity against Candida albicans ATCC10231 assessed as inhibition of fungal growth incubated for 12 hrs by agar dilution method; assay type: functional, organism-based
[4] = system: B16; experiment: Cytotoxicity against mouse B16 cells assessed as reduction in cell viability incubated for 72 hrs by MTT assay; assay type: functional, cell-based
[5] = system: Nakaseomyces glabratus; experiment: Antifungal activity against Candida glabrata ATCC2001 assessed as inhibition of fungal growth incubated for 12 hrs by agar dilution method; assay type: functional, organism-based
[6] = system: Escherichia coli; experiment: Antibacterial activity against Escherichia coli ATCC11775 assessed as inhibition of bacterial growth incubated for 12 hrs by agar dilution method; assay type: functional, organism-based
[7] = system: Staphylococcus aureus; experiment: Antibacterial activity against Staphylococcus aureus ATCC6538 assessed as inhibition of bacterial growth incubated for 12 hrs by agar dilution method; assay type: functional, organism-based
[8] = Binding affinity to Fe3+ assessed as compound-Fe3+ complex formation incubated for 3 hrs by Chrome Azurol S assay

SMILES: COc1cc([C@@H]2c3cccc(O)c3C(=O)C[C@@]2(O)Cc2ccccc2)oc(=O)c1
Activity [1]: inactive
Activity [2]: inactive
Activity [3]: inactive
Activity [4]: inactive
Activity [5]: inactive
Activity [6]: inactive
Activity [7]: inactive

SMILES: COc1cc(Cc2cccc(O)c2C(=O)c2ccccc2)oc(=O)c1
Activity [1]: inactive
Activity [2]: inactive
Activity [3]: inactive
Activity [4]: inactive
Activity [5]: inactive
Activity [6]: inactive
Activity [7]: inactive

SMILES: COc1cc(Cc2cccc(O)c2)oc(=O)c1
Activity [1]: inactive
Activity [2]: inactive
Activity [3]: inactive
Activity [4]: inactive
Activity [5]: inactive
Activity [6]: inactive
Activity [7]: inactive

SMILES: O=C1CCC(=O)N(O)CCCCCNC(=O)CCC(=O)N(O)CCCCCNC(=O)CCC(=O)N(O)CCCCCN1 [NOCARDAMINE]
Activity [1]: inactive
Activity [2]: inactive
Activity [3]: inactive
Activity [4]: inactive
Activity [5]: inactive
Activity [6]: inactive
Activity [7]: inactive
EC50 [8]: 22.4 µM

SMILES: CC(=O)N(O)CCCCCNC(=O)CCC(=O)N(O)CCCCCNC(=O)/C=C/c1ccccc1
Activity [1]: inactive
Activity [2]: inactive
Activity [3]: inactive
Activity [4]: inactive
Activity [5]: inactive
Activity [6]: inactive
Activity [7]: inactive
EC50 [8]: 39.1 µM

SMILES: COc1cc(-c2c(O)cccc2-c2ccccc2)oc(=O)c1
Activity [1]: inactive
Activity [2]: inactive
Activity [3]: inactive
Activity [4]: inactive
Activity [5]: inactive
Activity [6]: inactive
Activity [7]: inactive

SMILES: CC(=O)N(O)CCCCCNC(=O)CCC(=O)N(O)CCCCCNC(=O)CCc1ccccc1
Activity [1]: inactive
Activity [2]: inactive
Activity [3]: inactive
Activity [4]: inactive
Activity [5]: inactive
Activity [6]: inactive
Activity [7]: inactive
EC50 [8]: 12.9 µM

EC50 [8]: 20.2 µM
SMILES: CC(=O)N(O)CCCCCNC(=O)CCC(=O)N(O)CCCCCNC(=O)CCC(=O)N(O)CCCCCN [DEFEROXAMINE MESYLATE]
